Melting point data for 91 compounds are collected here from patent publication US6518423B1, “Benzopiperidine derivatives” (Eisai Co., Ltd., priority 1996, dated 2003).

The structures appear in SMILES notation.

With `CN(C)C(=O)/N=C(\N)Cc1ccc2c(c1)Nc1nccnc1S2`, the melting point was 158 to 161 °C.
For `CC(CCC1CCN(Cc2ccc3c(c2)Nc2ccncc2S3)CC1)C(=O)O` (stereo not shown) the value was 210 to 215 °C; for `c1cnc2c(n1)Nc1cc(Cn3cnnn3)ccc1S2`, 210 to 212 °C; for `CC(=NC#N)N1CCN(Cc2ccc3c(c2)Nc2nccnc2S3)CC1`, 234 °C (dec.).
Regarding `O=C(O)/C=C1\CCCN(Cc2ccc3c(c2)Nc2nccnc2S3)C1`, the melting point fell in the range of 200 to 203 °C.
Regarding `N=C(NC1CCN(Cc2ccc3c(c2)Nc2nccnc2S3)CC1)C(=O)O`, the melting point was 186 to 190 °C.
The result for `CC/C(=C\c1c(C)ncn1Cc1ccc2c(c1)Nc1nccnc1S2)C(=O)O` reads 172 °C; that for `CS(=O)(=O)/N=C/N1CCN(C(=N)Cc2ccc3c(c2)Nc2nccnc2S3)CC1.Cl`, 215 to 218 °C.
The result for `O=C(O)Cc1ccccc1C1CCN(Cc2ccc3c(c2)Nc2nccnc2S3)CC1` reads 152 to 154 °C; that for `O=C(O)C(F)C1C2CCCC1CN(Cc1ccc3c(c1)Nc1nccnc1S3)C2` (stereo not shown), 185 to 187 °C; that for `c1cnc2c(n1)Nc1cc(Cn3cnc4cncnc43)ccc1S2`, 264 to 265 °C.
For `Cc1cc(NCc2ccc3c(c2)Nc2nccnc2S3)c2ccccc2n1` the value was 290 to 300 °C; for `c1cnc2c(n1)Nc1cc(CN3CCCCCC3)ccc1S2`, 161 to 163 °C; for `CC(=O)NCc1ccc2c(c1)Nc1nccnc1N2C`, 247 to 249 °C.
Turning to `OC(C#Cc1ccccc1)c1ccc2c(c1)Nc1nccnc1S2` (stereo not shown), the melting point lay in the range of 192 to 194 °C.
For `Cc1ncnc2c1ncn2Cc1ccc2c(c1)Nc1nccnc1S2` the value was 276 to 278 °C.
The result for `O=S(=O)(NCCO)NC1CCN(Cc2ccc3c(c2)Nc2nccnc2S3)CC1` reads 164 to 166 °C; that for `O=C(c1ccccc1)N(Cc1ccc2c(c1)Nc1nccnc1S2)c1cccnc1`, 178 to 182 °C.
The result for `CN(Cc1ccc2c(c1)Nc1nccnc1S2)c1ccccc1` reads 172 to 174 °C; that for `CN1CCN(Cc2ccc3c(c2)Nc2nccnc2S3)CC1`, 191 to 192 °C; that for `OC(c1ccc(Br)nc1)c1ccc2c(c1)Nc1nccnc1S2` (stereo not shown), 221 to 223 °C.
As to `C/C(=C\c1c(C)ncn1Cc1ccc2c(c1)Nc1nccnc1S2)C(=O)O`, the melting point is > 298 °C.
For the compound `O=C1CCC2(CCN(Cc3ccc4c(c3)Nc3nccnc3S4)CC2)O1`, the melting point was 199 to 203 °C.
`c1cc(NCc2ccc3c(c2)Nc2nccnc2S3)ccn1` yielded a melting point of 194 to 196 °C.
`O=C(Nc1nccs1)c1ccc2c(c1)Nc1nccnc1S2` returned a melting point of 320 to 322 °C.
`CN1CCN(c2ncnc3c2ncn3Cc2ccc3c(c2)Nc2nccnc2S3)CC1` came in with a melting point of 197 to 202 °C.
For `Nc1ncccc1NCc1ccc2c(c1)Nc1nccnc1S2` the value was 225 to 228 °C; for `CS(=O)(=O)NCC1=CCCN(Cc2ccc3c(c2)Nc2nccnc2S3)C1`, 110 to 112 °C.
The result for `OC1CC2CN(Cc3ccc4c(c3)Nc3nccnc3S4)CC2C1` (stereo not shown) reads 192 to 195 °C; that for `N#Cc1ccc2c(c1)Nc1nccnc1N2`, > 275 °C.
For `CS(=O)(=O)/N=C/NC1CCN(Cc2ccc3c(c2)Nc2nccnc2S3)CC1` the value was 119 to 122 °C; for `O=C(O)c1ccc(CNCc2ccc3c(c2)Nc2nccnc2S3)cc1`, 245 to 248 °C; for `CS(=O)(=O)N1CCC(NCc2ccc3c(c2)Nc2nccnc2S3)CC1`, 219 to 221 °C.
Compound `OCCCc1ncnc2c1ncn2Cc1ccc2c(c1)Nc1nccnc1S2` yielded a melting point of 174 to 177 °C.
For `CS(=O)(=O)/N=C(\N)C1CCN(Cc2ccc3c(c2)Nc2nccnc2S3)CC1` the value was 204 to 209 °C; for `O=C(O)CNS(=O)(=O)NC1CCN(Cc2ccc3c(c2)Nc2nccnc2S3)CC1`, 195 to 196 °C; for `c1ccc(CN2c3ccccc3Nc3nccnc32)cc1`, 194 to 196 °C.
For `Cc1nccn1Cc1ccc2c(c1)Nc1nccnc1S2` the value was 244 to 246 °C; for `O=C(O)CCC(=O)N1CCN(Cc2ccc3c(c2)Nc2nccnc2S3)CC1`, 240 to 242 °C; for `C/C(=C\C(=O)O)C1CCN(Cc2ccc3c(c2)Nc2nccnc2S3)CC1`, 207 to 209 °C.
For `CC(C)(C)OC(=O)CN1c2ccccc2Nc2nccnc21` the value was 199 to 201 °C; for `OCc1cc(NCc2ccc3c(c2)Nc2nccnc2S3)ccn1`, 156 to 160 °C.
As for `Cc1c(CO)ncn1Cc1ccc2c(c1)Nc1nccnc1S2`, the melting point is > 270 °C (dec.).
For `O=C(O)C1=CCCN(Cc2ccc3c(c2)Nc2nccnc2S3)C1` the value was 178 to 180 °C; for `CCOC(=O)c1ncn(Cc2ccc3c(c2)Nc2nccnc2S3)c1C`, 222 to 224 °C.
The result for `CCCNC(=O)Cc1ccc2c(c1)Nc1nccnc1S2` reads 212 °C (dec.); that for `COCN1c2cc(C(=O)OC)ccc2Sc2nccnc21`, 151 to 152 °C.
The result for `C/C(=C\c1ncn(Cc2ccc3c(c2)Nc2nccnc2S3)c1C)C(=O)O` reads > 290 °C.
`CC(C)(O)CC1C2CCCC1CN(Cc1ccc3c(c1)Nc1nccnc1S3)C2` (stereo not shown) showed a melting point of 182 to 185 °C.
The result for `O=C(O)C(O)C1CCN(Cc2ccc3c(c2)Nc2nccnc2S3)CC1` (stereo not shown) reads 98 to 99 °C; that for `O=c1ccccn1Cc1ccc2c(c1)Nc1nccnc1S2`, 260 to 261 °C; that for `OC(c1ccccn1)c1nccn1Cc1ccc2c(c1)Nc1nccnc1S2` (stereo not shown), 95 to 98 °C.
For `c1cnc2c(n1)Nc1cc(Cn3cnc4ncnc(N5CCOCC5)c43)ccc1S2` the value was 269 to 273 °C; for `O=C(Nc1ccccc1)c1ccc2c(c1)Nc1nccnc1S2`, 281 to 282 °C; for `O=C(O)c1ccc(-c2cn(Cc3ccc4c(c3)Nc3nccnc3S4)cn2)cc1`, 264 to 266 °C.
For the compound `CN(C)c1ncnc2c1nc(C(F)(F)F)n2Cc1ccc2c(c1)Nc1nccnc1S2`, the melting point was in the range of 231 to 233 °C.
As to `CN(Cc1ccc(S(N)(=O)=O)cc1)Cc1ccc2c(c1)Nc1nccnc1S2`, the melting point was in the range of 181 to 184 °C.
The result for `CC12CCCC(C)(CN(Cc3ccc4c(c3)Nc3nccnc3S4)C1)C2CC(=O)O` (stereo not shown) reads 226 to 229 °C.
For `CS(=O)(=O)N1CCN(Cc2ccc3c(c2)Nc2nccnc2S3)CC1` the value was 221 to 222 °C; for `CN(Cc1ccc2c(c1)Nc1nccnc1S2)CC1CCC(C(=O)O)CC1` (stereo not shown), 203 to 204 °C.
For `N/C(Cc1ccc2c(c1)Nc1nccnc1S2)=N\S(N)(=O)=O` the value was > 260 °C (dec.).
Regarding `CN(C)c1ncnc2ncn(Cc3ccc4c(c3)Nc3nccnc3S4)c12`, the melting point lay within 265 to 268 °C.
The result for `CC(CC1C2CN(Cc3ccc4c(c3)Nc3nccnc3S4)CC1C(C)CC2C)C(=O)O` (stereo not shown) reads 110 to 115 °C; that for `c1cnn(Cc2ccc3c(c2)Nc2nccnc2S3)c1`, 211 to 212 °C; that for `CC(=O)N1CCN(C(=N)Cc2ccc3c(c2)Nc2nccnc2S3)CC1.Cl`, 268 to 269 °C.
The result for `Cl.c1ccc(CN2CCCN=C2Cc2ccc3c(c2)Nc2nccnc2S3)cc1` reads 153 to 155 °C (dec.).
The result for `CCOC(=O)CSc1ccc(NCc2ccc3c(c2)Nc2nccnc2S3)cn1` reads 118 to 122 °C; that for `ClCc1ccc2c(c1)Nc1nccnc1S2`, 161 to 162 °C; that for `COc1ccc(C(O)c2ccc3c(c2)Nc2nccnc2S3)cc1` (stereo not shown), 84 to 86 °C.
`CCOC(=O)COc1ccc(NCc2ccc3c(c2)Nc2nccnc2S3)cn1`: the melting point was 230 to 235 °C.
The result for `COC1CCN(Cc2ccc3c(c2)Nc2nccnc2S3)CC1` reads 172 to 174 °C; that for `c1cnc2c(n1)Nc1cc(CNCC3CCNCC3)ccc1S2`, 173 to 175 °C.
The result for `CCOC(=O)CCCCCOc1ccc(NCc2ccc3c(c2)Nc2nccnc2S3)cn1` reads 105 to 108 °C.
For `O=C(O)c1ccc(C(=O)c2nccn2Cc2ccc3c(c2)Nc2nccnc2S3)cc1` the value was 242 to 246 °C; for `O=C(O)c1ccc(CN2c3ccccc3Nc3nccnc32)cc1`, 253 to 255 °C; for `CC(CCC1CCN(Cc2ccc3c(c2)Sc2nccnc2N3)CC1)C(=O)O` (stereo not shown), 221 to 222 °C.
`C#CC/N=C(\N)Cc1ccc2c(c1)Nc1nccnc1S2.Cl` yielded a melting point of 222 to 223 °C.
The compound `COc1ccc2c(c1)N(C)c1nccnc1N2` yielded a melting point of 195 to 197 °C.
The result for `CS(=O)(=O)N1CCCN(Cc2ccc3c(c2)Nc2nccnc2S3)CC1` reads 158 to 160 °C; that for `OCCc1ccc(NCc2ccc3c(c2)Nc2nccnc2S3)cn1`, 138 to 142 °C; that for `N=C(Cc1ccc2c(c1)Nc1nccnc1S2)N1CCC(O)CC1`, 265 to 267 °C.
For `CN1c2ccc(/C=C/C(=O)O)cc2Nc2nccnc21` the value was 275 °C; for `c1ccc(Cc2nccn2Cc2ccc3c(c2)Nc2nccnc2S3)nc1`, 216 to 219 °C.
The result for `OCCN1c2ccccc2Nc2nccnc21` reads 197 to 204 °C; that for `CS(=O)(=O)NCCN1c2ccccc2Nc2nccnc21`, 218 to 222 °C; that for `CON=C1CCN(Cc2ccc3c(c2)Nc2nccnc2S3)CC1`, 142 to 143 °C.
Regarding `O=S(=O)(NC1CCN(Cc2ccc3c(c2)Nc2nccnc2S3)CC1)C(F)(F)F`, the melting point lay within 199 to 201 °C.
`CN1c2ccc(C#CCO)cc2Nc2nccnc21` returned a melting point of 241 to 243 °C.
As for `c1ccc2c(c1)CCN(Cc1ccc3c(c1)Nc1nccnc1S3)C2`, the melting point is 188 to 191 °C.
For `O=C(O)c1ccc(Cc2nccn2Cc2ccc3c(c2)Nc2nccnc2S3)cc1` the value was 185 to 188 °C; for `O=S(=O)(NC1CCN(Cc2ccc3c(c2)Nc2nccnc2S3)CC1)N1CCOCC1`, 189 to 190 °C.
